# From PubChem BioAssay (NCI)
#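 Each compound was tested at five concentrations against cells in 96-well plates for 48 hours. Here, GI50 denotes the concentration required for 50% inhibition of growth. TGI is the concentration that stops growth completely.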
# Legend:
# Assay in all cases: DTP human tumour cell line panel, 48 h
# 786-0 renal = tested on: 786-0 renal
# A498 renal = tested on: A498 renal
# A549 NSCLC = tested on: A549 NSCLC
# ACHN renal = tested on: ACHN renal
# BT-549 breast = tested on: BT-549 breast
# CAKI-1 renal = tested on: CAKI-1 renal
# CCRF-CEM leukemia = tested on: CCRF-CEM leukemia
# COLO 205 colon = tested on: COLO 205 colon
# DU-145 prostate = tested on: DU-145 prostate
# HCC-2998 colon = tested on: HCC-2998 colon
# HCT-116 colon = tested on: HCT-116 colon
# HCT-15 colon = tested on: HCT-15 colon
# HL-60(TB) leukemia = tested on: HL-60(TB) leukemia
# HOP-62 NSCLC = tested on: HOP-62 NSCLC
# HS 578T breast = tested on: HS 578T breast
# HT29 colon = tested on: HT29 colon
# IGROV1 ovarian = tested on: IGROV1 ovarian
# K-562 leukemia = tested on: K-562 leukemia
# KM12 colon = tested on: KM12 colon
# LOX IMVI melanoma = tested on: LOX IMVI melanoma
# M14 melanoma = tested on: M14 melanoma
# MALME-3M melanoma = tested on: MALME-3M melanoma
# MCF7 breast = tested on: MCF7 breast
# MDA-MB-231 breast = tested on: MDA-MB-231 breast
# MDA-MB-435 = tested on: MDA-MB-435
# MOLT-4 leukemia = tested on: MOLT-4 leukemia
# NCI-H226 lung = tested on: NCI-H226 lung
# NCI-H23 lung = tested on: NCI-H23 lung
# NCI-H460 lung = tested on: NCI-H460 lung
# NCI-H522 lung = tested on: NCI-H522 lung
# NCI/ADR-RES ovarian = tested on: NCI/ADR-RES ovarian
# OVCAR-3 ovarian = tested on: OVCAR-3 ovarian
# OVCAR-4 ovarian = tested on: OVCAR-4 ovarian
# OVCAR-5 ovarian = tested on: OVCAR-5 ovarian
# OVCAR-8 ovarian = tested on: OVCAR-8 ovarian
# PC-3 prostate = tested on: PC-3 prostate
# RPMI-8226 leukemia = tested on: RPMI-8226 leukemia
# RXF 393 renal = tested on: RXF 393 renal
# SF-268 CNS = tested on: SF-268 CNS
# SF-295 CNS = tested on: SF-295 CNS
# SF-539 CNS = tested on: SF-539 CNS
# SK-MEL-2 melanoma = tested on: SK-MEL-2 melanoma
# SK-MEL-28 melanoma = tested on: SK-MEL-28 melanoma
# SK-MEL-5 melanoma = tested on: SK-MEL-5 melanoma
# SK-OV-3 ovarian = tested on: SK-OV-3 ovarian
# SN12C renal = tested on: SN12C renal
# SNB-19 CNS = tested on: SNB-19 CNS
# SNB-75 CNS = tested on: SNB-75 CNS
# SR leukemia = tested on: SR leukemia
# SW-620 colon = tested on: SW-620 colon
# T-47D breast = tested on: T-47D breast
# TK-10 renal = tested on: TK-10 renal
# U251 CNS = tested on: U251 CNS
# UACC-257 melanoma = tested on: UACC-257 melanoma
# UACC-62 melanoma = tested on: UACC-62 melanoma
# UO-31 renal = tested on: UO-31 renal
smiles,measurement,setting,value
Cn1cc(C2=C(c3cn(CCCCN)c4ccccc34)C(=O)NC2=O)c2ccccc21,GI50,786-0 renal,> 25 µM
same,TGI,786-0 renal,> 25 µM
same,GI50,A498 renal,> 25 µM
same,TGI,A498 renal,> 25 µM
same,GI50,A549 NSCLC,> 25 µM
same,TGI,A549 NSCLC,> 25 µM
same,GI50,ACHN renal,> 25 µM
same,TGI,ACHN renal,> 25 µM
same,GI50,BT-549 breast,> 25 µM
same,TGI,BT-549 breast,> 25 µM
same,GI50,CAKI-1 renal,> 25 µM
same,TGI,CAKI-1 renal,> 25 µM
same,GI50,CCRF-CEM leukemia,> 25 µM
same,TGI,CCRF-CEM leukemia,> 25 µM
same,GI50,COLO 205 colon,> 25 µM
same,TGI,COLO 205 colon,> 25 µM
same,GI50,DU-145 prostate,> 25 µM
same,TGI,DU-145 prostate,> 25 µM
same,GI50,HCC-2998 colon,> 25 µM
same,TGI,HCC-2998 colon,> 25 µM
same,GI50,HCT-116 colon,> 25 µM
same,TGI,HCT-116 colon,> 25 µM
same,GI50,HCT-15 colon,> 25 µM
same,TGI,HCT-15 colon,> 25 µM
same,GI50,HL-60(TB) leukemia,> 25 µM
same,TGI,HL-60(TB) leukemia,> 25 µM
same,GI50,HOP-62 NSCLC,> 25 µM
same,TGI,HOP-62 NSCLC,> 25 µM
same,GI50,HS 578T breast,> 25 µM
same,TGI,HS 578T breast,> 25 µM
same,GI50,HT29 colon,> 25 µM
same,TGI,HT29 colon,> 25 µM
same,GI50,IGROV1 ovarian,> 25 µM
same,TGI,IGROV1 ovarian,> 25 µM
same,GI50,K-562 leukemia,> 25 µM
same,TGI,K-562 leukemia,> 25 µM
same,GI50,KM12 colon,> 25 µM
same,TGI,KM12 colon,> 25 µM
same,GI50,LOX IMVI melanoma,> 25 µM
same,TGI,LOX IMVI melanoma,> 25 µM
same,GI50,M14 melanoma,> 25 µM
same,TGI,M14 melanoma,> 25 µM
same,GI50,MALME-3M melanoma,> 25 µM
same,TGI,MALME-3M melanoma,> 25 µM
same,GI50,MCF7 breast,> 25 µM
same,TGI,MCF7 breast,> 25 µM
same,GI50,MDA-MB-231 breast,> 25 µM
same,TGI,MDA-MB-231 breast,> 25 µM
same,GI50,MDA-MB-435,> 25 µM
same,TGI,MDA-MB-435,> 25 µM
same,GI50,MOLT-4 leukemia,> 25 µM
same,TGI,MOLT-4 leukemia,> 25 µM
same,GI50,NCI-H226 lung,> 25 µM
same,TGI,NCI-H226 lung,> 25 µM
same,GI50,NCI-H23 lung,> 25 µM
same,TGI,NCI-H23 lung,> 25 µM
same,GI50,NCI-H460 lung,> 25 µM
same,TGI,NCI-H460 lung,> 25 µM
same,GI50,NCI-H522 lung,> 25 µM
same,TGI,NCI-H522 lung,> 25 µM
same,GI50,NCI/ADR-RES ovarian,> 25 µM
same,TGI,NCI/ADR-RES ovarian,> 25 µM
same,GI50,OVCAR-3 ovarian,> 25 µM
same,TGI,OVCAR-3 ovarian,> 25 µM
same,GI50,OVCAR-4 ovarian,> 25 µM
same,TGI,OVCAR-4 ovarian,> 25 µM
same,GI50,OVCAR-5 ovarian,> 25 µM
same,TGI,OVCAR-5 ovarian,> 25 µM
same,GI50,OVCAR-8 ovarian,> 25 µM
same,TGI,OVCAR-8 ovarian,> 25 µM
same,GI50,PC-3 prostate,> 25 µM
same,TGI,PC-3 prostate,> 25 µM
same,GI50,RPMI-8226 leukemia,> 25 µM
same,TGI,RPMI-8226 leukemia,> 25 µM
same,GI50,RXF 393 renal,> 25 µM
same,TGI,RXF 393 renal,> 25 µM
same,GI50,SF-268 CNS,> 25 µM
same,TGI,SF-268 CNS,> 25 µM
same,TGI,SF-295 CNS,> 25 µM
same,GI50,SF-539 CNS,> 25 µM
same,TGI,SF-539 CNS,> 25 µM
same,GI50,SK-MEL-2 melanoma,> 25 µM
same,TGI,SK-MEL-2 melanoma,> 25 µM
same,GI50,SK-MEL-28 melanoma,> 25 µM
same,TGI,SK-MEL-28 melanoma,> 25 µM
same,GI50,SK-MEL-5 melanoma,> 25 µM
same,TGI,SK-MEL-5 melanoma,> 25 µM
same,GI50,SK-OV-3 ovarian,> 25 µM
same,TGI,SK-OV-3 ovarian,> 25 µM
same,GI50,SN12C renal,> 25 µM
same,TGI,SN12C renal,> 25 µM
same,GI50,SNB-19 CNS,> 25 µM
same,TGI,SNB-19 CNS,> 25 µM
same,GI50,SNB-75 CNS,> 25 µM
same,TGI,SNB-75 CNS,> 25 µM
same,GI50,SR leukemia,> 25 µM
same,TGI,SR leukemia,> 25 µM
same,GI50,SW-620 colon,> 25 µM
same,TGI,SW-620 colon,> 25 µM
same,GI50,T-47D breast,> 25 µM
same,TGI,T-47D breast,> 25 µM
same,GI50,TK-10 renal,> 25 µM
same,TGI,TK-10 renal,> 25 µM
same,GI50,U251 CNS,> 25 µM
same,TGI,U251 CNS,> 25 µM
same,GI50,UACC-257 melanoma,> 25 µM
same,TGI,UACC-257 melanoma,> 25 µM
same,GI50,UACC-62 melanoma,> 25 µM
same,TGI,UACC-62 melanoma,> 25 µM
same,GI50,UO-31 renal,> 25 µM
same,TGI,UO-31 renal,> 25 µM
